Results published in ChEMBL document CHEMBL3817759, “Novel drug design for Chagas disease via targeting Trypanosoma cruzi tubulin: Homology modeling and binding pocket prediction on Trypanosoma cruzi tubulin polymerization inhibition by naphthoquinone derivatives” (Bioorg Med Chem, 2016).

Experiments:
[1] = system: Trypanosoma cruzi; test: Antitrypanosomal activity against epimastigote stage of Trypanosoma cruzi Tulahuen CL98 after 48 hrs by hemocytometry; assay type: functional, organism-based; conditions: Tulahuen CL98, 48 h
[2] = Inhibition of Trypanosoma cruzi tubulin polymerization incubated at room temperature for 15 mins followed by 5 mins at 4 degC in presence of GTP by photometric method

Row | SMILES | IC50 [1] | IC50 [2]
1 | CC1CS(=O)(=O)CCN1/N=C/c1ccc([N+](=O)[O-])o1 (stereo unspecified) [NIFURTIMOX] | 10.7 µM | –
2 | O=C1C(Cl)=C(N2C(=O)c3ccccc3C2=O)C(=O)c2ccccc21 | 4.83 µM | 12 µM
3 | O=C1C(Cl)=C(N2C(=O)CCC2=O)C(=O)c2ccccc21 | 2.77 µM | 6 µM
4 | CCCC(=O)N(C(=O)CCC)C1=C(Cl)C(=O)c2ccccc2C1=O | 0.7 µM | 3.2 µM
5 | O=C1C(Cl)=C(N(C(=O)CCl)C(=O)CCl)C(=O)c2ccccc21 | 6.1 µM | > 40 µM
6 | O=C1C(Cl)=C(N(C(=O)c2cccc(Cl)c2)C(=O)c2cccc(Cl)c2)C(=O)c2ccccc21 | 2.23 µM | 8 µM
